Data as given in PubChem BioAssay AID506 (SGCOxCompounds, 2006).

What follows are compounds tested against Serine/threonine-protein kinase Nek2 (Homo sapiens) (UniProt P51955) (assay: NEK2 binders by thermal shift, biophysical, DSF, SYPRO orange, recombinant protein (AID 506)). Settings: at 10 µM, protein 2 µM, active compounds read high.
Chain of Serine/threonine-protein kinase Nek2 (Homo sapiens) (P51955 whole entry, looked up): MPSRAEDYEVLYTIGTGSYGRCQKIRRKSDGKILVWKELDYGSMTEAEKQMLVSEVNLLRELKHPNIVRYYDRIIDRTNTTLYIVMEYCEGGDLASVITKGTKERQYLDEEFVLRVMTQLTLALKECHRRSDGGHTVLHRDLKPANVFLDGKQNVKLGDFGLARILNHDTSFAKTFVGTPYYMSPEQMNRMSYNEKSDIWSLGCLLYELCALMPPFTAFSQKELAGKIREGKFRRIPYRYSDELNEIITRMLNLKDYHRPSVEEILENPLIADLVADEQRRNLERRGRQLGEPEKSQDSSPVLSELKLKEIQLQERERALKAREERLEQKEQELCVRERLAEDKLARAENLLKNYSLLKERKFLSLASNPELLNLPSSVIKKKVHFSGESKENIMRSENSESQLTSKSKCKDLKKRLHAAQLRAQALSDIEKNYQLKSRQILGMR

Compound | Tm shift [°C]
CCN(CC)CCNC(=O)c1c(C)[nH]c(/C=C2\C(=O)Nc3ccc(Cl)cc32)c1C | 5.4
Nc1nc(Nc2ccc(S(N)(=O)=O)cc2)nn1C(=S)Nc1c(F)cccc1F | 3.1
COc1cccc(-c2cnn3ccc(Nc4cccc(Cl)c4)nc23)c1 | 3.2
Cc1cc(Nc2nc(-c3ccccc3)nc3ccccc23)n[nH]1 | 3.7
O=C1NCc2c1c1c3ccccc3[nH]c1c1[nH]c3ccccc3c21 | 3.7
Nc1cccc(-c2cc3c(Oc4cccc(O)c4)ncnc3[nH]2)c1 | 3.3
C=CCNC(=O)c1cccc2c1-c1ccccc1C2=O | 4.6
Cn1cc(/C=C2\C(=O)Nc3ccc(S(N)(=O)=O)cc32)c2ccccc21 | 6
O=c1c(O)c(-c2ccc(O)c(O)c2)oc2cc(O)cc(O)c12 | 3.4
O=C1C(C2=C3C(=Nc4ccccc43)/C(=C\c3ccc(O)cc3)C2=O)=C2C(=Nc3ccccc32)/C1=C\c1ccc(O)cc1 | 3.2
O=Nc1c(-c2c(O)[nH]c3ccc(S(O)(O)O)cc23)[nH]c2ccccc12 | 3.2
OCC(O)CCO/N=C1/C(c2c(O)[nH]c3ccccc23)=Nc2ccccc21 (stereo unspecified) | 3.3
Clc1cccc(Nc2ccn3ncc(-c4ccc5c(c4)OCO5)c3n2)c1 | 3.3
NS(=O)(=O)c1ccc(Nc2nc(OCC3CCCCC3)c3[nH]cnc3n2)cc1 | 5.6
NC(=O)Nc1sc(-c2ccccc2)cc1C(N)=O | 3.1
Nc1cc2ncnc(Nc3cccc(Br)c3)c2cc1N | 3.3
